Measured values: US11691972B2, “Compounds for targeted degradation of BRD9” (C4 Therapeutics, Inc., priority 2020, dated 2023)
Like-named read-outs stand apart in the source and are kept apart here.

Key:
[1] = PPB, rat; format: in vitro ADME; conditions: plasma
[2] = PO PK, rat; format: in vivo; conditions: for PO PK AUC(0-last) / PO PK Cmax: dose-normalised; for bioavailability / half-life: in vivo; for bioavailability: read-out: PO PK F%; for half-life: read-out: PO PK t1/2 (converted)
[3] = IV PK, mouse; format: in vivo; conditions: for IV PK AUC(0-last) / IV PK Cmax: dose-normalised; for clearance / Vd / half-life: in vivo; for clearance: read-out: IV PK CL; for Vd: read-out: IV PK Vdss; for half-life: read-out: IV PK t1/2 (converted)
[4] = Hepatocyte stability, dog; format: in vitro ADME; conditions: dog hepatocytes; read-out: Hepatocyte stability, Clint scaled ws
[5] = Plasma stability, human; format: in vitro ADME
[6] = biological target: hERG (Homo sapiens, UniProt Q12809); assay: hERG
Sequence of hERG (Q12809 whole entry): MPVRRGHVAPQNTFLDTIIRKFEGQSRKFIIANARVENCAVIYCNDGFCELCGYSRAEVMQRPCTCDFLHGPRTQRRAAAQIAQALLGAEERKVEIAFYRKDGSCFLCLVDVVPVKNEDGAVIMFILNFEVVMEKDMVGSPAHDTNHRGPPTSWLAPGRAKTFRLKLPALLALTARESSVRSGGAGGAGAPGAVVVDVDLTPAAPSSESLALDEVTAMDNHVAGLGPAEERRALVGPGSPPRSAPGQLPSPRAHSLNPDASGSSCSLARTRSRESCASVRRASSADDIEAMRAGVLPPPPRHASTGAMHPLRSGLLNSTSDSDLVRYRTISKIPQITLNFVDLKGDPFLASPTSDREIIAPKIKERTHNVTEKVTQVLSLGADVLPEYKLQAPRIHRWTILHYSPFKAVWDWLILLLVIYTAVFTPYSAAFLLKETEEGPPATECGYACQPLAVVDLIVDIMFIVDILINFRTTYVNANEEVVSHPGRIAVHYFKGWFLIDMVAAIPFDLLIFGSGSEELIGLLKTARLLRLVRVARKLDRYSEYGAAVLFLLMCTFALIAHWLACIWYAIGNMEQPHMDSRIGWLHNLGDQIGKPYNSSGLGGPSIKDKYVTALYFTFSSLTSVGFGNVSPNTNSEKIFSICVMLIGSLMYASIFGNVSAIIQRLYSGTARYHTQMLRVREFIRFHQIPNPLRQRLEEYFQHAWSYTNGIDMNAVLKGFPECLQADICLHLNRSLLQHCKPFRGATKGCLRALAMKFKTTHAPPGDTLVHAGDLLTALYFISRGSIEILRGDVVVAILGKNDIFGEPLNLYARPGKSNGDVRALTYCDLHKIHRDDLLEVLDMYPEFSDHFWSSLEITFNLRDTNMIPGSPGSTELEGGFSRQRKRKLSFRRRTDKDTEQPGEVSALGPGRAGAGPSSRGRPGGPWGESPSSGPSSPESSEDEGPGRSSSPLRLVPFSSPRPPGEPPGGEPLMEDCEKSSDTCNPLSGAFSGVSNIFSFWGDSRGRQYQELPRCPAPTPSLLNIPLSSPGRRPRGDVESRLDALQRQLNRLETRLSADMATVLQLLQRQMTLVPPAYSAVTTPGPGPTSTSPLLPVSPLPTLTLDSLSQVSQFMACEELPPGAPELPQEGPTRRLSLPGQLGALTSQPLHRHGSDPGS

[7] = Hepatocyte stability, mouse; format: in vitro ADME; conditions: mouse hepatocytes; read-out: Hepatocyte stability, Clint scaled ws
[8] = test system: Yamato-SS; assay: Synovial sarcoma xenograft model Yamato-SS, tumor volume; format: in vivo; conditions: BALB/c nude mice
Protocol: (§1) Yamato-SS cells were maintained in vitro until exponential growth phase and inoculated subcutaneously into BALB/c nude mice at the right flank for tumor development. Treatments of Compound 172 were started at the appropriate tumor volume. Mice were treated with 40 mg/kg PO QD of Compound 172 and tumor volumes (x-axis) were measured twice a week using a caliper. The x-axis is time after start of treatment measured in days and the y-axis is tumor volume measured in mm^3.
Yamato-SS cells were maintained in vitro until exponential growth phase and inoculated subcutaneously into BALB/c nude mice at the right flank. Treatments of Compound 172 were started at the appropriate tumor volume. Mice were randomized into groups and treated with 6, 17, or 50 mg/kg PO QD of Compound 172 and tumor volumes (x-axis) were measured twice a week using a caliper. The x-axis is time after start of treatment measured in days and the y-axis is tumor volume measured in mm^3.
as §1, with “176” for “172”, “treated as indicated” for “treated”, “with” for “with 40 mg/kg PO QD of”

[9] = biological target: T1, BRD9 (Homo sapiens, UniProt Q9H8M2); assay: HiBiT BRD9 degradation assay in 293T.166 (BRD9-HiBiT) cells; format: cell-based; design: endogenously expressing BRD9 with HiBiT fusion tag via CRISPR; host or cells: 293T.166 (BRD9-HiBiT), also expressing LgBiT ectopically
T1 sequence (Q9H8M2 1-597): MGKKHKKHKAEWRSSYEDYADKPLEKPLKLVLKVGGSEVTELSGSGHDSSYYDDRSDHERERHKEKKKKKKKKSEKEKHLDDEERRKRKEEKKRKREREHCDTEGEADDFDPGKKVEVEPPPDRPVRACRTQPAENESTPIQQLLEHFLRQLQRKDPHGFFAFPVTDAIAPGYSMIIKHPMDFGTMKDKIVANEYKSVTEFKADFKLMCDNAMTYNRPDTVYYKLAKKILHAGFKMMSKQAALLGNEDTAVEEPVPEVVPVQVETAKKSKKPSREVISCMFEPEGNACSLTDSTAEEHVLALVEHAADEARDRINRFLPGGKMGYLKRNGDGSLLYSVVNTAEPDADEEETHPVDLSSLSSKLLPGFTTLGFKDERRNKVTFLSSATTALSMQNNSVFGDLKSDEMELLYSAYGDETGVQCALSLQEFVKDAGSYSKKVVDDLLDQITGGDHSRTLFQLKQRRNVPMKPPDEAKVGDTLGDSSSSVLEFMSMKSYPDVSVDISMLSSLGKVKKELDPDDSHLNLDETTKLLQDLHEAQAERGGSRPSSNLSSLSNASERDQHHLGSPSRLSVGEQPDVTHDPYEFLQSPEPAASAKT
How it was run: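 Luminescence from the Nano-Glo HiBiT lytic reagent quantified BRD9 loss after compounds (top 10 μM, half-log, 11 points, duplicates) were incubated 2 h at 37° C. with 10,000 293T.166 BRD9-HiBiT/LgBiT cells per well, with controls lacking compound or lacking reagent.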

[10] = Hepatocyte stability, rat; format: in vitro ADME; conditions: rat hepatocytes; read-out: Hepatocyte stability, Clint scaled ws
[11] = Plasma stability, mouse; format: in vitro ADME
[12] = PO PK, mouse; format: in vivo; conditions: for PO PK AUC(0-last) / PO PK Cmax: dose-normalised; for bioavailability / half-life: in vivo; for bioavailability: read-out: PO PK F%; for half-life: read-out: PO PK t1/2 (converted)
[13] = PPB, mouse; format: in vitro ADME; conditions: plasma
[14] = Table 1, 293T.166 cells, 2.0 hours, class symbols, read-out: HiBiT-Degradation 293T.166 BRD9 2.0 hours (DC50)

COc1cc(-c2cn(C)c(=O)c(C)c2C)cc(OC)c1CN1CCC(N2CCN(c3ccc(NC4CCC(=O)NC4=O)cc3F)CC2)C(F)(F)C1 (single isomer, unassigned) [Compound 176, 3-[4-[4-[1-[[2,6-dimethoxy-4-(1,4,5-trimethyl-6-oxo-3-pyridyl)phenyl]methyl]-3,3-difluoro-4-piperidyl]piperazin-1-yl]-3-fluoro-anilino]piperidine-2,6-dione]
fraction unbound [1]: 0.098 | PO PK AUC(0-last) [2]: 656 (h*ng/mL)/(mg/kg) | PO PK Cmax [2]: 75 (ng/mL)/(mg/kg) | bioavailability [2]: 83% | half-life [2]: 5.1 h | IV PK AUC(0-last) [3]: 2724 (h*ng/mL)/(mg/kg) | IV PK Cmax [3]: 720 [ng/mL]/(mg/kg) | clearance [3]: 6.2 mL/min/kg | Vd [3]: 2 L/kg | half-life [3]: 3.7 h | CLint scaled [4]: 8.6 mL/min/kg | Stability (plasma) % remaining @3 hrs [5]: 67% | IC50 [6]: > 30000 nM | CLint scaled [7]: 30 mL/min/kg | tumor volume after treatment, Yamato-SS xenograft ([8]; treated as indicated, FIG. 21): strong effect | DC50 [9, 14]: < 100 nM | CLint scaled [10]: 14.2 mL/min/kg | Stability (plasma) % remaining @3 hrs [11]: 85% | PO PK AUC(0-last) [12]: 1999 (h*ng/mL)/(mg/kg) | PO PK Cmax [12]: 346 (ng/mL)/(mg/kg) | bioavailability [12]: 74% | half-life [12]: 3.5 h | fraction unbound [13]: 0.034

COc1cc(-c2cn(C)c(=O)c(C)c2C)cc(OC)c1CN1CCC(N2CCN(c3ccc(NC4CCC(=O)NC4=O)cc3F)CC2)C(F)(F)C1 (stereo not shown) [Compound 172, 3-[4-[4-[1-[[2,6-dimethoxy-4-(1,4,5-trimethyl-6-oxo-3-pyridyl)phenyl]methyl]-3,3-difluoro-4-piperidyl]piperazin-1-yl]-3-fluoro-anilino]piperidine-2,6-dione]
fraction unbound [1]: 0.083 | PO PK AUC(0-last) [2]: 520 (h*ng/mL)/(mg/kg) | PO PK Cmax [2]: 92 (ng/mL)/(mg/kg) | bioavailability [2]: 49% | half-life [2]: 4.3 h | IV PK AUC(0-last) [3]: 4942 (h*ng/mL)/(mg/kg) | IV PK Cmax [3]: 1228 [ng/mL]/(mg/kg) | clearance [3]: 3.4 mL/min/kg | Vd [3]: 1.1 L/kg | half-life [3]: 3.6 h | CLint scaled [4]: 2 mL/min/kg | Stability (plasma) % remaining @3 hrs [5]: 83.4% | IC50 [6]: > 30000 nM | CLint scaled [7]: 38 mL/min/kg | tumor volume after treatment, Yamato-SS xenograft ([8]; 40 mg/kg PO QD, FIG. 1): strong effect | tumor volume after treatment, Yamato-SS xenograft, dose response ([8]; 6, 17, or 50 mg/kg PO QD, FIG. 7): dose dependent efficacy | BRD9 degradation (2 h), Kendo 17 h, percent ([9]; 2 h): 5% | DC50 ([9]; 2 h, read-out: BRD9 degradation (2 h), Kendo 17 h, concentration): 3.4 nM | DC50 [9, 14]: < 100 nM | CLint scaled [10]: 15 mL/min/kg | Stability (plasma) % remaining @3 hrs [11]: 90.3% | PO PK AUC(0-last) [12]: 5947 (h*ng/mL)/(mg/kg) | PO PK Cmax [12]: 844 (ng/mL)/(mg/kg) | bioavailability [12]: 122% | half-life [12]: 3.3 h | fraction unbound [13]: 0.018
